System: Spontaneously hypertensive rats (SHR)
Assay: Acute Efficacy in Spontaneously Hypertensive Rats (SHR), telemetry blood pressure
Type: in vivo, rat
Description: Acute Efficacy in Spontaneously Hypertensive Rats (SHR)
Spontaneously hypertensive rats (SHR, male, Charles River) were implanted with DSI TA11PA-C40 telemetry device (Data Sciences, Inc., St. Paul, Minn.) under isoflurane or ketamine/metomidine anesthesia. The telemetry unit catheter was inserted into the descending aorta via the femoral artery and the telemetry device was implanted subcutaneously in the left flank area. Animals were allowed to recover from surgery for 14 days before the start of any studies. Blood pressure, heart rate, and activity signals from conscious, freely moving rats were recorded continuously for 30 seconds every 10 minutes. On the day prior to administration of compound, a single oral dose of vehicle (10% transcutol/20% Cremophor/70% water) was administered to all animals to establish baseline control data. The blood pressure lowering efficacy of compound (PO) or vehicle was evaluated following a single oral gavage. Data were collected as hourly averages, and changes in blood pressure were calculated by subtracting control baseline data on an hourly basis. Animals were maintained on normal diet with a 12 hour light-dark cycle.
Maximum peak decreases of systolic blood pressure (SBP) in SHR at a particular P.O. dose (mpk milligrams per kilogram) for the following representative compounds are provided.

| Structure (SMILES) | Maximum SBP reduction (dose 0.3 mpk) | Maximum peak decrease of systolic blood pressure (SBP) in SHR, Category (single oral dose 0.3 mpk P.O.) | also measured |
| --- | --- | --- | --- |
| CC1(C(N)=O)C(=O)Nc2nc(-c3nn(CCC(F)(F)C(F)(F)F)c4cc(Cl)ccc34)nc(N)c21 (single isomer, unassigned) [Example 159, 4-Amino-2-[6-Chloro-1-(3,3,4,4,4-Pentafluorobutyl)-1H-Indazol-3-yl]-5-Methyl-6-Oxo-6,7-Dihydro-5H-Pyrrolo[2,3-D]Pyrimidine-5-Carboxamide] | 38 ± 6 mmHg | B (Category B=SBP in SHRs 25-40 mmHg) | – |
| CC1(C(=O)NC2CC2)C(=O)Nc2nc(-c3nn(CCC(F)(F)C(F)(F)F)c4cc(Cl)ccc34)nc(N)c21 (single isomer, unassigned) [Example 160, 4-Amino-2-[6-Chloro-1-(3,3,4,4,4-Pentafluorobutyl)-1H-Indazol-3-yl]-N-Cyclopropyl-5-Methyl-6-Oxo-6,7-Dihydro-5H-Pyrrolo[2,3-D]Pyrimidine-5-Carboxamide] | 77 ± 10 mmHg | C (Category C=SBP in SHRs>40 mmHg) | – |
| CC1(c2ncccn2)C(=O)Nc2nc(-c3nn(CCC(F)(F)C(F)(F)F)c4ncccc34)nc(N)c21 (single isomer, unassigned) [Example 170, 4-Amino-5-Methyl-2-[1-(3,3,4,4,4-Pentafluorobutyl)-1H-Pyrazolo[3,4-B]Pyridin-3-yl]-5-Pyrimidin-2-yl-5,7-Dihydro-6H-Pyrrolo[2,3-D]Pyrimidin-6-One] | – | – | Maximum SBP reduction (dose 1.0 mpk): 65 ± 13 mmHg; Maximum peak decrease of systolic blood pressure (SBP) in SHR, Category (single oral dose 1 mpk P.O.): C (Category C=SBP in SHRs>40 mmHg) |
| CC1(c2ccccc2)C(=O)Nc2nc(-c3nc(CCC(F)(F)C(F)(F)F)c4ccccn34)nc(N)c21 (single isomer, unassigned) [Example 190, 4-Amino-5-Methyl-2-[1-(3,3,4,4,4-Pentafluorobutyl)Imidazo[1,5-A]Pyridin-3-yl]-5-Phenyl-5,7-Dihydro-6H-Pyrrolo[2,3-D]Pyrimidin-6-One] | – | B (Category B=SBP in SHRs 25-40 mmHg) | – |
| CC1(C(N)=O)C(=O)Nc2nc(-c3nn(CCC(F)(F)C(F)(F)F)c4ncccc34)nc(N)c21 (centres unmarked) [Example 161, 4-Amino-5-Methyl-6-Oxo-2-[1-(3,3,4,4,4-Pentafluorobutyl)-1H-Pyrazolo[3,4-B]Pyridin-3-yl]-6,7-Dihydro-5H-Pyrrolo[2,3-D]Pyrimidine-5-Carboxamide] | – | B (Category B=SBP in SHRs 25-40 mmHg) | – |
| NC(=O)C1(C2CC2)C(=O)Nc2nc(-c3nn(CCC(F)(F)C(F)(F)F)c4ncccc34)nc(N)c21 (centres unmarked) [Example 162, 4-Amino-5-Cyclopropyl-6-Oxo-2-[1-(3,3,4,4,4-Pentafluorobutyl)-1H-Pyrazolo[3,4-B]Pyridin-3-yl]-6,7-Dihydro-5H-Pyrrolo[2,3-D]Pyrimidine-5-Carboxamide] | 26 ± 7 mmHg | B (Category B=SBP in SHRs 25-40 mmHg) | – |
| N#CC1(C2CC2)C(=O)Nc2nc(-c3nn(CCC(F)(F)C(F)(F)F)c4ncccc34)nc(N)c21 (centres unmarked) [Example 163, 4-Amino-5-Cyclopropyl-6-Oxo-2-[1-(3,3,4,4,4-Pentafluorobutyl)-1H-Pyrazolo[3,4-B]Pyridin-3-yl]-6,7-Dihydro-5H-Pyrrolo[2,3-D]Pyrimidine-5-Carbonitrile] | – | C (Category C=SBP in SHRs>40 mmHg) | – |
| CC1(C(=O)NC2CC2)C(=O)Nc2nc(-c3nn(CCC(F)(F)C(F)(F)F)c4ncccc34)nc(N)c21 (centres unmarked) [Example 164, 4-Amino-N-Cyclopropyl-5-Methyl-6-Oxo-2-[1-(3,3,4,4,4-Pentafluorobutyl)-1H-Pyrazolo[3,4-B]Pyridin-3-yl]-6,7-Dihydro-5H-Pyrrolo[2,3-D]Pyrimidine-5-Carboxamide] | – | C (Category C=SBP in SHRs>40 mmHg) | – |
| CC1(C(=O)Nc2ccccc2)C(=O)Nc2nc(-c3nn(CCC(F)(F)C(F)(F)F)c4cc(Cl)ccc34)nc(N)c21 (centres unmarked) [Example 165, 4-Amino-2-[6-Chloro-1-(3,3,4,4,4-Pentafluorobutyl)-1H-Indazol-3-yl]-5-Methyl-6-Oxo-N-Phenyl-6,7-Dihydro-5H-Pyrrolo[2,3-D]Pyrimidine-5-Carboxamide] | – | B (Category B=SBP in SHRs 25-40 mmHg) | – |
| CCOC(=O)NC1(C)C(=O)Nc2nc(-c3nn(CCC(F)(F)C(F)(F)F)c4cc(Cl)ccc34)nc(N)c21 (centres unmarked) [Example 166, Ethyl (4-Amino-2-(6-Chloro-1-(3,3,4,4,4-Pentafluorobutyl)-1H-Indazol-3-yl)-5-Methyl-6-Oxo-6,7-Dihydro-5H-Pyrrolo[2,3-D]Pyrimidin-5-yl)Carbamate] | – | A (Category A=SBP in SHRs<25 mmHg) | – |
| Cc1nc(C2(C)C(=O)Nc3nc(-c4nn(CCC(F)(F)C(F)(F)F)c5cc(Cl)ccc45)nc(N)c32)sc1C (centres unmarked) [Example 167, 4-Amino-2-[6-Chloro-1-(3,3,4,4,4-Pentafluorobutyl)-1H-Indazol-3-yl]-5-(4,5-Dimethyl-1,3-Thiazol-2-yl)-5-Methyl-5,7-Dihydro-6H-Pyrrolo[2,3-D]Pyrimidin-6-One] | – | B (Category B=SBP in SHRs 25-40 mmHg) | – |
| CC1(c2nncs2)C(=O)Nc2nc(-c3nn(CCC(F)(F)C(F)(F)F)c4ncccc34)nc(N)c21 (centres unmarked) [Example 168, 4-Amino-5-Methyl-2-[1-(3,3,4,4,4-Pentafluorobutyl)-1H-Pyrazolo[3,4-B]Pyridin-3-yl]-5-(1,3,4-Thiadiazol-2-yl)-5,7-Dihydro-6H-Pyrrolo[2,3-D]Pyrimidin-6-One] | 19 ± 9 mmHg | A (Category A=SBP in SHRs<25 mmHg) | – |
| Cc1nnc(C2(C)C(=O)Nc3nc(-c4nn(CCC(F)(F)C(F)(F)F)c5ncccc45)nc(N)c32)o1 (centres unmarked) [Example 169, 4-Amino-5-Methyl-5-(5-Methyl-1,3,4-Oxadiazol-2-yl)-2-[1-(3,3,4,4,4-Pentafluorobutyl)-1H-Pyrazolo[3,4-B]Pyridin-3-yl]-5,7-Dihydro-6H-Pyrrolo[2,3-D]Pyrimidin-6-One] | 52 ± 5 mmHg | C (Category C=SBP in SHRs>40 mmHg) | – |
| CC(C)n1nc(C2(C)C(=O)Nc3nc(-c4nn(CCC(F)(F)C(F)(F)F)c5cc(Cl)ccc45)nc(N)c32)oc1=O (centres unmarked) [Example 171, 4-Amino-2-[6-Chloro-1-(3,3,4,4,4-Pentafluorobutyl)-1H-Indazol-3-yl]-5-Methyl-5-[5-Oxo-4-(Propan-2-yl)-4,5-Dihydro-1,3,4-Oxadiazol-2-yl]-5,7-Dihydro-6H-Pyrrolo[2,3-D]Pyrimidin-6-One] | – | C (Category C=SBP in SHRs>40 mmHg) | – |
| CC(C)n1nc(C2(C)C(=O)Nc3nc(-c4nn(CCC(F)(F)C(F)(F)F)c5cc(Cl)ccc45)nc(N)c32)oc1=S (centres unmarked) [Example 172, 4-Amino-2-[6-Chloro-1-(3,3,4,4,4-Pentafluorobutyl)-1H-Indazol-3-yl]-5-Methyl-5-[4-(Propan-2-yl)-5-Thioxo-4,5-Dihydro-1,3,4-Oxadiazol-2-yl]-5,7-Dihydro-6H-Pyrrolo[2,3-D]Pyrimidin-6-One] | – | A (Category A=SBP in SHRs<25 mmHg) | – |
| CCn1cc(C2(C)C(=O)Nc3nc(-c4nn(CCC(F)(F)C(F)(F)F)c5ncccc45)nc(N)c32)nn1 (centres unmarked) [Example 173, 4-Amino-5-(1-Ethyl-1H-1,2,3-Triazol-4-yl)-5-Methyl-2-[1-(3,3,4,4,4-Pentafluorobutyl)-1H-Pyrazolo[3,4-B]Pyridin-3-yl]-5,7-Dihydro-6H-Pyrrolo[2,3-D]Pyrimidin-6-One] | 66 ± 6 mmHg | C (Category C=SBP in SHRs>40 mmHg) | – |
| CC1(NCC2CC2)C(=O)Nc2nc(-c3nn(CCC(F)(F)C(F)(F)F)c4ncccc34)nc(N)c21 (centres unmarked) [Example 174, 4-Amino-5-[(Cyclopropylmethyl)Amino]-5-Methyl-2-[1-(3,3,4,4,4-Pentafluorobutyl)-1H-Pyrazolo[3,4-B]Pyridin-3-yl]-5,7-Dihydro-6H-Pyrrolo[2,3-D]Pyrimidin-6-One] | – | B (Category B=SBP in SHRs 25-40 mmHg) | – |
| CC1(CC#N)C(=O)Nc2nc(-c3nn(CCC(F)(F)C(F)(F)F)c4cc(Cl)ccc34)nc(N)c21 (centres unmarked) [Example 175, {4-Amino-2-[6-Chloro-1-(3,3,4,4,4-Pentafluorobutyl)-1H-Indazol-3-yl]-5-Methyl-6-Oxo-6,7-Dihydro-5H-Pyrrolo[2,3-D]Pyrimidin-5-yl}Acetonitrile] | – | B (Category B=SBP in SHRs 25-40 mmHg) | – |
| CC1(C(=O)NC2CC2)C(=O)Nc2nc(-c3nn(CCC(F)(F)C(F)(F)F)c4nc(Cl)ccc34)nc(N)c21 (centres unmarked) [Example 176, 4-Amino-2-(6-Chloro-1-(3,3,4,4,4-Pentafluorobutyl)-1H-Pyrazolo[3,4-B]Pyridin-3-yl)-N-Cyclopropyl-5-Methyl-6-Oxo-6,7-Dihydro-5H-Pyrrolo[2,3-D]Pyrimidine-5-Carboxamide] | – | – | Maximum peak decrease of systolic blood pressure (SBP) in SHR, Category (single oral dose 0.1 mpk P.O.): C (Category C=SBP in SHRs>40 mmHg) |
